Values joined by “and” are separate entries in the source; they are usually repeats but may differ in a detail not shown here. Equal values may be shown once. Inconclusive results and toxic doses are left out.
Test system: P388 leukemia ip, CD2F1 mice, survival T/C
Test: NCI In Vivo Anticancer Drug Screen. Data for tumor model P388 Leukemia (intraperitoneal) in CD2F1 (CDF1) mice
Conditions: endpoint: median survival time, higher = longer survival
Method in brief: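 Mice carrying the transplanted tumor received test compound or vehicle. Survival was recorded in each group, and the value is the treated-group measurement divided by that of the vehicle-treated control group.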

[1] = dose: 100.0 mg/kg/injection, schedule: Q01DX009 (ip), vehicle: saline with Tween-80
[2] = dose: 200.0 mg/kg/injection, schedule: Q01DX009 (ip), vehicle: saline with Tween-80
[3] = dose: 50.0 mg/kg/injection, schedule: Q01DX005 (ip), vehicle: saline with Tween-80
[4] = dose: 100.0 mg/kg/injection, schedule: Q01DX005 (ip), vehicle: saline with Tween-80
[5] = dose: 200.0 mg/kg/injection, schedule: Q01DX005 (ip), vehicle: saline with Tween-80
[6] = dose: 25.0 mg/kg/injection, schedule: Q01DX009 (ip), vehicle: saline
[7] = dose: 50.0 mg/kg/injection, schedule: Q01DX009 (ip), vehicle: saline
[8] = dose: 100.0 mg/kg/injection, schedule: Q01DX009 (ip), vehicle: saline
[9] = dose: 50.0 mg/kg/injection, schedule: Q01DX009 (ip), vehicle: saline with Tween-80
[10] = dose: 50.0 mg/kg/injection, schedule: Q04DX003 (ip), vehicle: saline with Tween-80
[11] = dose: 100.0 mg/kg/injection, schedule: Q04DX003 (ip), vehicle: saline with Tween-80
[12] = dose: 50.0 mg/kg/injection, schedule: Q01DX005 (ip), vehicle: Klucel (hydroxypropylcellulose) (HPC)
[13] = dose: 200.0 mg/kg/injection, schedule: Q01DX009 (ip), vehicle: saline

## O=C(Nc1ccc(C(=O)Nc2cc(S(=O)(=O)O)cc3cc(S(=O)(=O)O)cc(O)c23)cc1)c1ccccc1
[1]
  T/C: 98 % of control
[2]
  T/C: 106 % of control
dose: 400.0 mg/kg/injection, schedule: Q01DX009 (ip), vehicle: saline with Tween-80
  T/C: 103 % of control

## Nc1ccc(N=Nc2ccc3cc4ccc(N=Nc5ccc(N)nc5N)cc4nc3c2)c(N)n1
dose: 6.25 mg/kg/injection, schedule: Q01DX005 (ip), vehicle: saline with Tween-80
  T/C: 92 % of control
dose: 12.5 mg/kg/injection, schedule: Q01DX005 (ip), vehicle: saline with Tween-80
  T/C: 100 % of control and 106 % of control
dose: 25.0 mg/kg/injection, schedule: Q01DX005 (ip), vehicle: saline with Tween-80
  T/C: 100 % of control and 116 % of control
[3]
  T/C: 95 % of control
[4]
  T/C: 106 % of control
[5]
  T/C: 109 % of control

## CCN(CC)c1ccc(/C=N\NC(=O)C(=O)N/N=C\c2ccc(N(CC)CC)cc2)cc1
[3]
  T/C: 87 % of control
[4]
  T/C: 87 % of control
[5]
  T/C: 89 % of control

## COc1ccc(C(=O)N2N=C(C)C(C)(C)C2(C)O)cc1 (centres undefined)
dose: 60.0 mg/kg/injection, schedule: Q01DX005 (ip), vehicle: Klucel (hydroxypropylcellulose) (HPC)
  T/C: 104 % of control
dose: 120.0 mg/kg/injection, schedule: Q01DX005 (ip), vehicle: Klucel (hydroxypropylcellulose) (HPC)
  T/C: 109 % of control
dose: 240.0 mg/kg/injection, schedule: Q01DX005 (ip), vehicle: Klucel (hydroxypropylcellulose) (HPC)
  T/C: 104 % of control

## CN(C)CCC(=O)c1cccc([N+](=O)[O-])c1
dose: 12.5 mg/kg/injection, schedule: Q01DX009 (ip), vehicle: saline
  T/C: 104 % of control
[6]
  T/C: 101 % of control
[7]
  T/C: 104 % of control and 109 % of control
[8]
  T/C: 98 % of control

## CC1(C)O[C@H]2CC(=O)OC[C@@]23[C@H]1CC(=O)[C@@]1(C)C2=CCC(c4ccoc4)[C@]2(C)CC[C@@H]13 (some centres undefined)
dose: 3.12 mg/kg/injection, schedule: Q01DX005 (ip), vehicle: distilled water + Tween-80
  T/C: 95 % of control
dose: 6.25 mg/kg/injection, schedule: Q01DX005 (ip), vehicle: distilled water + Tween-80
  T/C: 99 % of control
dose: 12.5 mg/kg/injection, schedule: Q01DX005 (ip), vehicle: distilled water + Tween-80
  T/C: 102 % of control
dose: 25.0 mg/kg/injection, schedule: Q01DX005 (ip), vehicle: distilled water + Tween-80
  T/C: 116 % of control
dose: 50.0 mg/kg/injection, schedule: Q01DX005 (ip), vehicle: distilled water + Tween-80
  T/C: 92 % of control

## O=C(Nc1ccccc1)C1C(=O)C(=O)N(c2ccccc2)C1=O (centres undefined)
dose: 50.0 mg/kg/injection, schedule: Q01DX009 (ip), vehicle: Klucel (hydroxypropylcellulose) (HPC)
  T/C: 107 % of control
dose: 100.0 mg/kg/injection, schedule: Q01DX009 (ip), vehicle: Klucel (hydroxypropylcellulose) (HPC)
  T/C: 101 % of control
dose: 200.0 mg/kg/injection, schedule: Q01DX009 (ip), vehicle: Klucel (hydroxypropylcellulose) (HPC)
  T/C: 99 % of control

## CC(C(=O)O)C1(O)CCCCC1 (centres undefined)
dose: 12.5 mg/kg/injection, schedule: Q01DX009 (ip), vehicle: saline with Tween-80
  T/C: 99 % of control
dose: 25.0 mg/kg/injection, schedule: Q01DX009 (ip), vehicle: saline with Tween-80
  T/C: 105 % of control
[9]
  T/C: 102 % of control
[1]
  T/C: 106 % of control

## O=C(O)c1ccc(Oc2nc3ccccc3s2)cc1
[10]
  T/C: 91 % of control
[11]
  T/C: 91 % of control

## C=CC[n+]1ccc(/C=N\NC(N)=S)c2ccccc21
[9]
  T/C: 116 % of control
[1]
  T/C: 110 % of control

## Cn1c(=O)ccc2ccc(N(CCO)CCO)nc21
[10]
  T/C: 98 % of control
[11]
  T/C: 94 % of control
dose: 200.0 mg/kg/injection, schedule: Q04DX003 (ip), vehicle: saline with Tween-80
  T/C: 103 % of control

## COc1cc(C(Nc2ncccn2)c2cc3c(cc2OC(C)=O)OCO3)cc(OC)c1OC (centres undefined)
dose: 60.0 mg/kg/injection, schedule: Q01DX005 (ip), vehicle: saline with Tween-80
  T/C: 98 % of control
dose: 120.0 mg/kg/injection, schedule: Q01DX005 (ip), vehicle: saline with Tween-80
  T/C: 98 % of control
dose: 240.0 mg/kg/injection, schedule: Q01DX005 (ip), vehicle: saline with Tween-80
  T/C: 95 % of control

## Nc1ccn([C@@H]2C=C(CO)[C@@H](O)[C@H]2O)c(=O)n1
dose: 0.5 mg/kg/injection, schedule: Q01DX009 (ip), vehicle: saline
  T/C: 150 % of control
dose: 1.0 mg/kg/injection, schedule: Q01DX009 (ip), vehicle: saline
  T/C: 188 % of control
dose: 2.25 mg/kg/injection, schedule: Q01DX009 (ip), vehicle: saline
  T/C: 111 % of control and 87 % of control

## c1cnc2ccc3ncccc3c2c1
dose: 12.5 mg/kg/injection, schedule: Q01DX005 (ip), vehicle: Klucel (hydroxypropylcellulose) (HPC)
  T/C: 99 % of control
dose: 25.0 mg/kg/injection, schedule: Q01DX005 (ip), vehicle: Klucel (hydroxypropylcellulose) (HPC)
  T/C: 96 % of control
[12]
  T/C: 100 % of control and 97 % of control

## O=P1(NCCCl)OCCCN1CCCl (centres undefined)
[6]
  T/C: 184 % of control
dose: 30.0 mg/kg/injection, schedule: Q01DX005 (iv), vehicle: saline
  T/C: 157 % of control
[7]
  T/C: 270 % of control
dose: 60.0 mg/kg/injection, schedule: Q01DX005 (ip), vehicle: saline
  T/C: 195 % of control
dose: 60.0 mg/kg/injection, schedule: Q01DX005 (iv), vehicle: saline
  T/C: 186 % of control
[8]
  T/C: 282 % of control
dose: 120.0 mg/kg/injection, schedule: Q01DX005 (ip), vehicle: saline
  T/C: 280 % of control
dose: 120.0 mg/kg/injection, schedule: Q01DX005 (iv), vehicle: saline
  T/C: 241 % of control
[13]
  T/C: 111 % of control
dose: 240.0 mg/kg/injection, schedule: Q01DX005 (ip), vehicle: saline
  T/C: 280 % of control
dose: 240.0 mg/kg/injection, schedule: Q01DX005 (iv), vehicle: saline
  T/C: 252 % of control
dose: 289.0 mg/kg/injection, schedule: Q01DX001 (ip), vehicle: saline
  T/C: 233 % of control
dose: 431.0 mg/kg/injection, schedule: Q01DX001 (ip), vehicle: saline
  T/C: 582 % of control
dose: 538.0 mg/kg/injection, schedule: Q01DX001 (ip), vehicle: saline
  T/C: 582 % of control
dose: 646.0 mg/kg/injection, schedule: Q01DX001 (ip), vehicle: saline
  T/C: 242 % of control

## N#CC1CC2OC1CC(=O)C2(O)c1occc(=O)c1O (centres undefined)
[9]
  T/C: 100 % of control
[1]
  T/C: 107 % of control
[2]
  T/C: 105 % of control

## O=C1CNCC(=O)N1
dose: 50.0 mg/kg/injection, schedule: Q01DX005 (ip), vehicle: saline
  T/C: 110 % of control
dose: 100.0 mg/kg/injection, schedule: Q01DX005 (ip), vehicle: saline
  T/C: 99 % of control
dose: 200.0 mg/kg/injection, schedule: Q01DX005 (ip), vehicle: saline
  T/C: 100 % of control

## Cc1nnc2c3nccn3ccn12
dose: 12.5 mg/kg/injection, schedule: Q01DX001 (ip), vehicle: saline with Tween-80
  T/C: 106 % of control
dose: 25.0 mg/kg/injection, schedule: Q01DX001 (ip), vehicle: saline with Tween-80
  T/C: 101 % of control
dose: 50.0 mg/kg/injection, schedule: Q01DX001 (ip), vehicle: saline with Tween-80
  T/C: 106 % of control

## CC(=O)[C@]1(O)Cc2c(O)c3c(c(O)c2[C@@H](OC2CC(NC(=O)C(F)(F)F)C(O)C(C)O2)C1)C(=O)c1c(O)cccc1C3=O (some centres undefined)
dose: 12.5 mg/kg/injection, schedule: Q04DX003 (ip), vehicle: water
  T/C: 96 % of control
dose: 25.0 mg/kg/injection, schedule: Q04DX003 (ip), vehicle: water
  T/C: 118 % of control
dose: 100.0 mg/kg/injection, schedule: Q04DX003 (ip), vehicle: water
  T/C: 118 % of control
dose: 200.0 mg/kg/injection, schedule: Q04DX003 (ip), vehicle: water
  T/C: 214 % of control

## CC1(c2ccccc2)NC(=O)N(Sc2ccccc2)C1=O (centres undefined)
[12]
  T/C: 111 % of control
dose: 100.0 mg/kg/injection, schedule: Q01DX005 (ip), vehicle: Klucel (hydroxypropylcellulose) (HPC)
  T/C: 113 % of control
dose: 200.0 mg/kg/injection, schedule: Q01DX005 (ip), vehicle: Klucel (hydroxypropylcellulose) (HPC)
  T/C: 107 % of control

## Cc1cnc(C(N)=O)c(=O)[nH]1
[8]
  T/C: 95 % of control
dose: 100.0 mg/kg/injection, schedule: Q04DX003 (ip), vehicle: saline
  T/C: 105 % of control
[13]
  T/C: 100 % of control
dose: 200.0 mg/kg/injection, schedule: Q04DX003 (ip), vehicle: saline
  T/C: 100 % of control
dose: 400.0 mg/kg/injection, schedule: Q01DX009 (ip), vehicle: saline
  T/C: 100 % of control
dose: 400.0 mg/kg/injection, schedule: Q04DX003 (ip), vehicle: saline
  T/C: 100 % of control
